≈ marks a conversion by molar mass, not a printed value.
Tests used:
N. gonorrhoeae WHO X = experiment: Liquid broth MIC in Fastidious broth; conditions: Neisseria gonorrhoeae, read-out: Minimum Inhibitory Concentration, WHO X
P. aeruginosa ATCC 35151 = experiment: microbe, parasite or virus in culture; format: cell-based; conditions: Pseudomonas aeruginosa, ATCC35151, read-out: Minimum inhibitory concentration, P. aeruginosa ATCC 35151
A. baumannii CDC-0036 = experiment: microbe, parasite or virus in culture; format: cell-based; conditions: Acinetobacter baumannii, CDC0036, read-out: MIC, A. baumannii CDC-0036
A. baumannii ATCC 17978 = experiment: microbe, parasite or virus in culture; format: cell-based; conditions: Acinetobacter baumannii, ATCC17978, read-out: MIC, A. baumannii ATCC 17978
P. aeruginosa CDC-0095 = experiment: microbe, parasite or virus in culture; format: cell-based; conditions: Pseudomonas aeruginosa, CDC0095, read-out: Minimum inhibitory concentration, P. aeruginosa CDC-0095
N. gonorrhoeae MS11 = experiment: Liquid broth MIC in Fastidious broth; conditions: Neisseria gonorrhoeae, MS11, read-out: Minimum Inhibitory Concentration, MS11
P. aeruginosa CDC-0110 = experiment: microbe, parasite or virus in culture; format: cell-based; conditions: Pseudomonas aeruginosa, CDC0110, read-out: Minimum inhibitory concentration, P. aeruginosa CDC-0110
[1] = target: T1, PBP3 from Pseudomonas aeruginosa (PAO1) (Pseudomonas aeruginosa, UniProt G3XD46); experiment: Bocillin-FL fluorescence polarization competition binding, P. aeruginosa PBP3; conditions: Binding affinity to P. aeruginosa PBP3; fluorescence polarization competition binding assay using Bocillin-FL; read-out: P. aeruginosa PBP3 Potency
T1 construct: made in house
T1 sequence (G3XD46 whole entry): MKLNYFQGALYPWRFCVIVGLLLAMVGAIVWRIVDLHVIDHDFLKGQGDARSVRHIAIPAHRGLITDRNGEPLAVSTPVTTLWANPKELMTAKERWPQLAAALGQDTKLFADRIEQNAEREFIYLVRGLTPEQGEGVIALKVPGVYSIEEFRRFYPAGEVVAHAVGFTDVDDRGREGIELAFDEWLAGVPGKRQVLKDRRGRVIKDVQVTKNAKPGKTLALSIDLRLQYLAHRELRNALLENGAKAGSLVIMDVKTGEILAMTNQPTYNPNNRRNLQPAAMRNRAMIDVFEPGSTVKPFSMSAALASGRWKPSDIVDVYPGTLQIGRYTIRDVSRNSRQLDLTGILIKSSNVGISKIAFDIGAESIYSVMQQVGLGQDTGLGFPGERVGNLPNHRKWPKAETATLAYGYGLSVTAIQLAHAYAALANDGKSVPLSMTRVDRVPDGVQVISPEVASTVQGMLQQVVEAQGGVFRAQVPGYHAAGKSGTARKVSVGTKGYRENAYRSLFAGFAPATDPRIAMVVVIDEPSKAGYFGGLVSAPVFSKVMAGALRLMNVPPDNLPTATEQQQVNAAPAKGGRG
How it was run: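 Purified PBPs pre-incubated with inhibitor (E. coli PBP3 1.5 μM, 30 min; P. aeruginosa PBP3 0.75 μM, A. baumannii PBP1a 1 μM and PBP3 0.2 μM, 15 min), then Bocillin-FL 0.1 μM (0.05 μM for PBP1a) added; FP read up to 60 min. EC50 = concentration halving bound Bocillin-FL.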

N. gonorrhoeae CDC-0197 = experiment: Liquid broth MIC in Fastidious broth; conditions: Neisseria gonorrhoeae, CDC0197, read-out: Minimum Inhibitory Concentration, CDC-0197
A. baumannii CDC-0033 = experiment: microbe, parasite or virus in culture; format: cell-based; conditions: Acinetobacter baumannii, CDC0033, read-out: MIC, A. baumannii CDC-0033
A. baumannii CDC-0083 = experiment: microbe, parasite or virus in culture; format: cell-based; conditions: Acinetobacter baumannii, CDC0083, read-out: MIC, A. baumannii CDC-0083
A. baumannii 1258916 = experiment: microbe, parasite or virus in culture; format: cell-based, Acinetobacter baumannii; conditions: Acinetobacter baumannii, 1258916, read-out: MIC, A. baumannii 1258916
N. gonorrhoeae WHO M = experiment: Liquid broth MIC in Fastidious broth; conditions: Neisseria gonorrhoeae, read-out: Minimum Inhibitory Concentration, WHO M
[2] = test system: N. gonorrhoeae ATCC 49226; experiment: Liquid broth MIC in Fastidious broth; conditions: Neisseria gonorrhoeae, ATCC49226, read-out: Minimum Inhibitory Concentration, ATCC 49226
A. baumannii ATCC 19606 = experiment: microbe, parasite or virus in culture; format: cell-based; conditions: Acinetobacter baumannii, ATCC19606, read-out: MIC, A. baumannii ATCC 19606

| SMILES | MIC (N. gonorrhoeae WHO X) [mg/L] | MIC (P. aeruginosa ATCC 35151) [mg/L] | MIC (A. baumannii CDC-0036) [mg/L] | MIC (A. baumannii ATCC 17978) [mg/L] | MIC (P. aeruginosa CDC-0095) [mg/L] | MIC (N. gonorrhoeae MS11) [mg/L] | MIC (P. aeruginosa CDC-0110) [mg/L] | IC50 [1] [µM] | MIC (N. gonorrhoeae CDC-0197) [mg/L] | MIC (A. baumannii CDC-0033) [mg/L] | MIC (A. baumannii CDC-0083) [mg/L] | MIC (A. baumannii 1258916) [mg/L] | MIC (N. gonorrhoeae WHO M) [mg/L] | MIC [2] [mg/L] | MIC (A. baumannii ATCC 19606) [mg/L] |
| --- | --- | --- | --- | --- | --- | --- | --- | --- | --- | --- | --- | --- | --- | --- | --- |
| O=C(NCCCS(=O)(=O)N1CCN(C(=O)N[C@@H](C(=O)N[C@H]2Cc3ccc(F)c(C(=O)O)c3OB2O)c2cc(F)c(O)c(O)c2Cl)C1=O)c1cccc(O)c1 [Example 271, (R)-3-((R)-2-(2-chloro-5-fluoro-3,4-dihydroxyphenyl)-2-(3-((3-(3-hydroxybenzamido)propyl)sulfonyl)-2-oxoimidazolidine-1-carboxamido)acetamido)-7-fluoro-2-hydroxy-3,4-dihydro-2H-benzo[e][1,2]oxaborinine-8-carboxylic acid] | > 64 | < 1 | 2 to 4 (≈ 2.51 to 5.03 µM) | < 1 | > 128 | 16 to 32 (≈ 20.1 to 40.2 µM) | 8 to 16 (≈ 10.1 to 20.1 µM) | < 10 | 16 to 32 (≈ 20.1 to 40.2 µM) | 2 to 4 (≈ 2.51 to 5.03 µM) | < 1 | < 1 | 4 to 8 (≈ 5.03 to 10.1 µM) | 16 to 32 (≈ 20.1 to 40.2 µM) | < 1 |
| O=C(NCCCS(=O)(=O)N1CCN(C(=O)NC(C(=O)N[C@H]2Cc3ccc(F)c(C(=O)O)c3OB2O)c2cc(F)c(O)c(O)c2Cl)C1=O)c1ccncc1 (stereo partly drawn) [Example 272, (3R)-3-(2-(2-chloro-5-fluoro-3,4-dihydroxyphenyl)-2-(3-((3-(isonicotinamido)propyl)sulfonyl)-2-oxoimidazolidine-1-carboxamido)acetamido)-7-fluoro-2-hydroxy-3,4-dihydro-2H-benzo[e][1,2]oxaborinine-8-carboxylic acid] | > 64 | < 1 | 2 to 4 (≈ 2.56 to 5.12 µM) | < 1 | > 128 | 16 to 32 (≈ 20.5 to 41 µM) | 2 to 4 (≈ 2.56 to 5.12 µM) | < 10 | 16 to 32 (≈ 20.5 to 41 µM) | 8 to 16 (≈ 10.2 to 20.5 µM) | < 1 | 2 to 4 (≈ 2.56 to 5.12 µM) | 16 to 32 (≈ 20.5 to 41 µM) | 16 to 32 (≈ 20.5 to 41 µM) | < 1 |
| O=C(NCCCS(=O)(=O)N1CCN(C(=O)NC(C(=O)N[C@H]2Cc3ccc(F)c(C(=O)O)c3OB2O)c2cc(F)c(O)c(O)c2Cl)C1=O)c1cccnc1 (stereo partly drawn) [Example 273, (3R)-3-(2-(2-chloro-5-fluoro-3,4-dihydroxyphenyl)-2-(3-((3-(nicotinamido)propyl)sulfonyl)-2-oxoimidazolidine-1-carboxamido)acetamido)-7-fluoro-2-hydroxy-3,4-dihydro-2H-benzo[e][1,2]oxaborinine-8-carboxylic acid] | > 64 | < 1 | 2 to 4 (≈ 2.56 to 5.12 µM) | < 1 | 32 to 64 (≈ 41 to 82 µM) | 16 to 32 (≈ 20.5 to 41 µM) | < 1 | < 10 | 16 to 32 (≈ 20.5 to 41 µM) | 2 to 4 (≈ 2.56 to 5.12 µM) | < 1 | < 1 | 16 to 32 (≈ 20.5 to 41 µM) | 16 to 32 (≈ 20.5 to 41 µM) | < 1 |
| O=C(NCCCS(=O)(=O)N1CCN(C(=O)NC(C(=O)N[C@H]2Cc3ccc(F)c(C(=O)O)c3OB2O)c2cc(F)c(O)c(O)c2Cl)C1=O)c1nccs1 (stereo partly drawn) [Example 274, (3R)-3-(2-(2-chloro-5-fluoro-3,4-dihydroxyphenyl)-2-(2-oxo-3-((3-(thiazole-2-carboxamido)propyl)sulfonyl)imidazolidine-1-carboxamido)acetamido)-7-fluoro-2-hydroxy-3,4-dihydro-2H-benzo[e][1,2]oxaborinine-8-carboxylic acid] | > 64 | < 1 | 2 to 4 (≈ 2.54 to 5.08 µM) | < 1 | > 128 | 16 to 32 (≈ 20.3 to 40.7 µM) | 2 to 4 (≈ 2.54 to 5.08 µM) | < 10 | 16 to 32 (≈ 20.3 to 40.7 µM) | 8 to 16 (≈ 10.2 to 20.3 µM) | < 1 | < 1 | 16 to 32 (≈ 20.3 to 40.7 µM) | 16 to 32 (≈ 20.3 to 40.7 µM) | < 1 |
| O=C(O)c1c(F)ccc2c1OB(O)[C@@H](NC(=O)C(NC(=O)N1CCN(S(=O)(=O)CCCNC(=O)[C@@H]3CCCN3)C1=O)c1cc(F)c(O)c(O)c1Cl)C2 (stereo partly drawn) [Example 275, (3R)-3-(2-(2-chloro-5-fluoro-3,4-dihydroxyphenyl)-2-(2-oxo-3-((3-((S)-pyrrolidine-2-carboxamido)propyl)sulfonyl)imidazolidine-1-carboxamido)acetamido)-7-fluoro-2-hydroxy-3,4-dihydro-2H-benzo[e][1,2]oxaborinine-8-carboxylic acid] | > 64 | < 1 | 2 to 4 (≈ 2.59 to 5.18 µM) | < 1 | 8 to 16 (≈ 10.4 to 20.7 µM) | 16 to 32 (≈ 20.7 to 41.4 µM) | < 1 | < 10 | 16 to 32 (≈ 20.7 to 41.4 µM) | 8 to 16 (≈ 10.4 to 20.7 µM) | 2 to 4 (≈ 2.59 to 5.18 µM) | < 1 | 16 to 32 (≈ 20.7 to 41.4 µM) | 16 to 32 (≈ 20.7 to 41.4 µM) | < 1 |
| O=C(NCCCS(=O)(=O)N1CCN(C(=O)NC(C(=O)N[C@H]2Cc3ccc(F)c(C(=O)O)c3OB2O)c2cc(F)c(O)c(O)c2Cl)C1=O)Nc1ccc(O)cc1 (stereo partly drawn) [Example 276, (3R)-3-(2-(2-chloro-5-fluoro-3,4-dihydroxyphenyl)-2-(3-((3-(3-(4-hydroxyphenyl)ureido)propyl)sulfonyl)-2-oxoimidazolidine-1-carboxamido)acetamido)-7-fluoro-2-hydroxy-3,4-dihydro-2H-benzo[e][1,2]oxaborinine-8-carboxylic acid] | > 64 | < 1 | 2 to 4 (≈ 2.47 to 4.93 µM) | < 1 | 8 to 16 (≈ 9.87 to 19.7 µM) | 16 to 32 (≈ 19.7 to 39.5 µM) | 2 to 4 (≈ 2.47 to 4.93 µM) | < 10 | 16 to 32 (≈ 19.7 to 39.5 µM) | 8 to 16 (≈ 9.87 to 19.7 µM) | < 1 | < 1 | 4 to 8 (≈ 4.93 to 9.87 µM) | 16 to 32 (≈ 19.7 to 39.5 µM) | < 1 |
